Reference: patent US20230331679A1, “NAPHTHALENE MONOIMIDE COMPOUNDS AND METHODS THEREOF” (JAWAHARLAL NEHRU CENTRE FOR ADVANCED SCIENTIFIC RESEARCH, priority 2020, published 2023)

What was measured:
[1] = target: T1, Aβ42 peptide (Homo sapiens, UniProt P05067); assay: 1H NMR study of molecular interactions between TGR63 and Aβ42; format: binding; conditions: Aβ42 10 µM, D2O (12%) containing PBS, 24, 48 and 72 h
T1 construct: commercially available β-amyloid peptide (1-42), human; purchased marck (so in the source) PP69-.025 mg
Description: Nuclear magnetic resonance (NMR) spectroscopy was performed to ascertain the molecular level interactions between TGR63 and Aβ42 peptide. ^1H NMR spectra of TGR63 were acquired in absence and presence of Aβ42 (10 µM) peptides using the WATERGATE sequence for solvent suppression in deuterium oxide (D2O, 12%) containing PBS at different incubation time points (24, 48 and 72 h). […] The aromatic protons of NMI and aniline moieties (a-f) appeared at 6.5-8.8 ppm, respectively. However, the splitting patterns of all the aromatic peaks were completely readjusted undergoing a significant downfield shift over a period of time in the presence of Aβ42 peptide. This observation confirmed the interaction of aromatic moieties (π-electron rich) of TGR63 with native and misfolded Aβ42 peptides, which leads to alteration in the extent of nuclei and proximal electron coupling (J-couplings).

[2] = target: T2, Full length tau (Homo sapiens, UniProt P10636); assay: ThT fluorescence assay, inhibition of tau aggregation; format: biochemical; conditions: for ThT fluorescence signal compared with untreated controls (100%): tau 5 µM, heparin 1.25 µM, 72 h at 37° C.
T2 construct: Full length tau (5 µM) was incubated with TGR63
From the text: Tau is a microtubule-associated proteins that interacts with tubulin and stimulates its assembly into microtubules. The extent of phosphorylation regulates the activity of tau protein and the hyperphosphorylation diminishes its physiological function leading to several neuronal disorders like AD and tauopathies. The self-aggregation of hyperphosphorylated tau form intracellular neurofibrillary tangles (NFTs) and paired helical filaments (PHFs) that impairs the axonal functions and degenerates neuronal cells. Considering the prominent role of tau in AD pathology, the self-aggregation and deposition of hyperphosphorylated tau became a potential target to tackle AD and related tauopathies. Effect of TGR63 on tau aggregation was assessed. Full length tau (5 µM) was incubated with TGR63 (5 and 25 µM) for 72 h at 37° C. in the presence of aggregation inducer (heparin; 1.25 µM). The extent of aggregation of incubated samples were assessed by ThT fluorescence (λex= 442 nm and λem=482 nm) assay. FIG. 25 depicts the inhibition of tau (5 µM) aggregation in presence of TGR63. As expected, the ThT fluorescence signal was increased by ~15 folds with compare to only ThT, which confirmed the formation of pathogenic tau aggregates.

[3] = MALDI mass analysis of blood serum after administration; format: in vivo; conditions: WT mice, 24 h after administration
Description: Pharmacokinetics of TGR63 in wild-type (WT) mice was performed to assess its in vivo efficacy. The lethal dose 50 (LD50) of TGR63 was determined in WT mice through intraperitoneal (IP) injection following the Organisation for Economic Cooperation and Development (OECD) guidelines. […] FIG. 7A illustrates the calculation of lethal dose 50% (LD50) of TGR63 through intraperitoneal administration and is represented as table of experimental details and the final observation was done on 14th day. FIG. 7B illustrates the mortality (%) plotted against TGR63 concentration and calculation of LD50. Twenty-five WT mice were segregated in five different groups (G1-5, N= 5 per group) and administered with varying doses of TGR63 (1.7, 5.5, 17.5 56.0 and 179.0 mg/kg body weight, respectively) through IP injection and their survival was monitored for 14 days. The serum stability and blood-brain barrier (BBB) crossing ability of TGR63 were assessed through matrix-assisted laser desorption ionization (MALDI) mass spectrometry analysis of blood and brain samples of vehicle and TGR63 treated mice. […] The partition coefficient (P), a valuable physical property was calculated to predict the BBB permeability. […] The calculated positive logP value predicts the possible BBB crossing ability for TGR63. […]

T2 sequence (P10636 1-441 isoform P10636-8): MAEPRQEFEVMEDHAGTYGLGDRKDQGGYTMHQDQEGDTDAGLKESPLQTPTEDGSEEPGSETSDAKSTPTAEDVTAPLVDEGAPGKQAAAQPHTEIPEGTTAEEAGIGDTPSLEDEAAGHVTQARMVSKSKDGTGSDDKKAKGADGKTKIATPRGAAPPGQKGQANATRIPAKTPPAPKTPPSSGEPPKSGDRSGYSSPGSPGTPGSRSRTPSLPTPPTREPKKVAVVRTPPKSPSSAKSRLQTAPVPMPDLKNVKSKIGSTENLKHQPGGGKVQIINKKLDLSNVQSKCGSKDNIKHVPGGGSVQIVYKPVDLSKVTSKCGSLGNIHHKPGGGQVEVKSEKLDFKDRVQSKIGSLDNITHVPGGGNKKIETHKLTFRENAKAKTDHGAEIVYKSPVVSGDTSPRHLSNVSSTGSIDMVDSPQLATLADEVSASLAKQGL
T1 sequence (P05067 672-713 limits assumed): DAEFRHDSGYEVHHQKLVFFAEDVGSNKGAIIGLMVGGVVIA

CN(C)c1ccc(C#Cc2ccc3c4c(cccc24)C(=O)N(CC[N+](C)(C)C)C3=O)cc1 [TGR63, 2-(6-((4-(dimethylamino)phenyl)ethynyl)-1,3-dioxo-1H-benzo[de]isoquinolin-2(3H)-yl)-N,N,N-trimethylethan-1-aminium]
interaction with Aβ42 peptides (1H NMR) [1]: interacts with native and misfolded Aβ42 peptides | ThT fluorescence signal compared with untreated controls (100%) ([2]; TGR63 5 µM): ~ 72% | ThT fluorescence signal compared with untreated controls (100%) ([2]; TGR63 25 µM): ~52% | reduction of tau aggregates ([2]; tau:TGR63 1:1): ~ 28% | reduction of tau aggregates ([2]; tau:TGR63 1:5): ~48% | presence in blood (MALDI) [3]: confirmed the presence of TGR63 in blood after 24 h of administration
